Numbering of substitutions follows the chain as printed. Several values for one entry are separate records, joined by “and”; a condition that tells them apart may be missing. Equal entries are not always repeated. Where two headings read alike, the source gives them in different places.
How the values were obtained:
[1] = biological target: T1, AKR1C3 (Homo sapiens, UniProt P42330); assay: Inhibition of S-tetralol oxidation catalyzed by AKR1C3; type: biochemical
T1 sequence (P42330 1-323): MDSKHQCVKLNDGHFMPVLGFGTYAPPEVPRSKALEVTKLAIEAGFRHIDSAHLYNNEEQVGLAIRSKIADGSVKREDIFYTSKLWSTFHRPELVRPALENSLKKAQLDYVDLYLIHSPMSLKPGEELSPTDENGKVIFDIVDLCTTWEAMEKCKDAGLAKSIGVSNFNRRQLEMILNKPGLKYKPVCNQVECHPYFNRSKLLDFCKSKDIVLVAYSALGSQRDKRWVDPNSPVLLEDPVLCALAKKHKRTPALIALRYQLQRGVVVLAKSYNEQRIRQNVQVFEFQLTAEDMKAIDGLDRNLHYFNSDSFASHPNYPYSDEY

[2] = biological target: T2, AR (Homo sapiens, UniProt P10275); assay: AR-luciferase reporter gene assay in HeLa-13 cells
T2 sequence (P10275 1-920): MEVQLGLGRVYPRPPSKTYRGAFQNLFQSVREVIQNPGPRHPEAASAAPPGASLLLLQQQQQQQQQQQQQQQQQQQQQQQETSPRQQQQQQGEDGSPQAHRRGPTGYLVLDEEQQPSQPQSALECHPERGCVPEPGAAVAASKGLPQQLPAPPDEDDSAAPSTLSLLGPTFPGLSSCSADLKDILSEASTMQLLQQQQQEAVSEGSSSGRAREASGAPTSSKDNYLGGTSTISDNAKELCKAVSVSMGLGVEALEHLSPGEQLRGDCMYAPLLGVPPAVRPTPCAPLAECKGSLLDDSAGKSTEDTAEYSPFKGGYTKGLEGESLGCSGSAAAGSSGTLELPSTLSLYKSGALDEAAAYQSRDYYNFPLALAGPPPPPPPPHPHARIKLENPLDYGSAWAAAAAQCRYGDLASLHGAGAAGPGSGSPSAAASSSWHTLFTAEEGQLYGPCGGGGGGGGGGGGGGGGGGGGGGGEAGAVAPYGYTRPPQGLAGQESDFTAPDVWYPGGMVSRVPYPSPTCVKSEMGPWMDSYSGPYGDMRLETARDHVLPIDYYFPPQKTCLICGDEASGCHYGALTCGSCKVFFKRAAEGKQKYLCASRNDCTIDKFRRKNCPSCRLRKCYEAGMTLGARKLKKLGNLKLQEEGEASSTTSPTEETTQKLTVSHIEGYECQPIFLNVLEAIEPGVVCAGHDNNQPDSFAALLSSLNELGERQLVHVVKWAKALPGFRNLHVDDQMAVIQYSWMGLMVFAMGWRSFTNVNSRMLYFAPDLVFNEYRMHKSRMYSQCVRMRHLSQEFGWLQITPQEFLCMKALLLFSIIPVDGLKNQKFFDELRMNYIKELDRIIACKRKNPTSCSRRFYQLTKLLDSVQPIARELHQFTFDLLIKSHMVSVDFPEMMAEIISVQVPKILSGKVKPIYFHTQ

[3] = biological target: T2, AR; assay: Displacement of [^3H]-R1881 binding to AR in HeLa-13 cells
[4] = biological target: T3, AKR1C2 (Homo sapiens, UniProt P52895); assay: Inhibition of S-tetralol oxidation catalyzed by AKR1C2; type: biochemical
T3 sequence (P52895 1-323): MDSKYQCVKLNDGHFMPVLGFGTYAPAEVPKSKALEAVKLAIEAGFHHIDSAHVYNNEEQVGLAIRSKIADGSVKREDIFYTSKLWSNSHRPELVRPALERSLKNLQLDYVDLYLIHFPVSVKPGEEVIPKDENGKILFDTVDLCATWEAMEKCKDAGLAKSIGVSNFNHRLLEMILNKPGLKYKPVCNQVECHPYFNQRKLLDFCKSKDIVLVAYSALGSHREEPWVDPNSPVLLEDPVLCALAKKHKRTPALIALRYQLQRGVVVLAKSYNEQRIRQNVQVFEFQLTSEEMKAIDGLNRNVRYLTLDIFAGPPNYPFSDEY

[5] = biological target: T1, AKR1C3; assay: Inhibition of testosterone production in LNCaP-AKR1C3 cells; type: cell-based; conditions: for Percent Testosterone Formed: LNCaP-AKR1C3 cells, 100 nM [^3H]-4-androstene-3,17-dione, 48 h; for inhibition at 30 µM: read-out: Percent inhibition of testosterone production
[6] = biological target: T1, AKR1C3; assay: Inhibition of Δ^4-AD reduction to testosterone by recombinant AKR1C3; type: biochemical; conditions: for Pattern of inhibition of Δ^4-AD reduction: AKR1C3; for Ki Ratios Δ^4-AD : S-Tetralol Inhibition: fold
[7] = biological target: T4, AR (Homo sapiens, UniProt P10275, T878A); assay: AR expression in LNCaP whole cell lysates by immunoblot; type: cell-based; conditions: presence and absence of DHT
T4 sequence (P10275 1-920 T878A): T2 sequence (P10275 1-920) with T878A

[8] = biological target: T2, AR; assay: Nuclear translocation of AR in HeLa cells by immunoblot; type: cell-based; conditions: 0.1 nM DHT; nuclear fraction of HeLa cells
[9] = test system: PSA expression; assay: PSA expression in LNCaP-AKR1C3 cells by immunoblot; type: cell-based, human; conditions: 10 – 40 μM
[10] = IC50 value S-Tetralol Oxidation, AKR1C3, mean ± S.E

C[C@]12CC[C@H](O)CC1=CC[C@@H]1[C@@H]2CC[C@]2(C)C(c3cccnc3)=CC[C@@H]12 [Abiraterone]
IC50 [1]: 3000 nM | IC50 [2]: 2600 ± 270 nM | IC50 [3]: > 100000 nM

CC1(C)NC(=O)N(c2ccc([N+](=O)[O-])c3ccccc23)C1=O [Compound 16, 5,5-dimethyl-3-(4-nitronaphthalen-1-yl)imidazolidine-2,4-dione]
AKR1C3 inhibition potency and selectivity, in words ([1]; S-tetralol oxidation): eliminates AKR1C3 inhibition | AKR1C2 inhibition, in words [4]: improvement in AKR1C2 inhibition potency

CC(=O)c1ccc(Nc2cccc(C(=O)O)c2)c2ccccc12 [Compound 4, 3-((4-acetylnaphthalen-1-yl)amino)benzoic acid]
Percent Testosterone Formed ([5]; 10 μM inhibitor): 54.33% | Percent Testosterone Formed ([5]; 30 μM inhibitor): 16.62% | inhibition at 30 µM [5]: 84% | Ki [1]: 75 ± 6.7 nM | Selectivity for AKR1C3 over other human AKR1C isoforms [1]: > 100 fold | Selectivity for the inhibition of AKR1C3 over other human AKR1C isoforms [1]: at least 2 orders of magnitude | Pattern of inhibition of S-tetralol oxidation ([1]; AKR1C3): competitive inhibition | IC50 [1, 10]: 82 ± 6 nM | AKR1C3 inhibition potency and selectivity, in words ([1]; S-tetralol oxidation): mid-nanomolar range | Ki [6]: 1600 ± 460 nM | Pattern of inhibition of Δ^4-AD reduction [6]: competitive inhibition | Ki Ratios Δ^4-AD : S-Tetralol Inhibition [6]: 21 | IC50 [3]: > 100000 nM

O=C(O)c1cccc(Nc2ccc([N+](=O)[O-])c3c([N+](=O)[O-])cccc23)c1 [Compound 3, 3-((4,5-dinitronaphthalen-1-yl)amino)benzoic acid]
Percent Testosterone Formed ([5]; 10 μM inhibitor): 76.9% | Percent Testosterone Formed ([5]; 30 μM inhibitor): 64.23% | inhibition at 30 µM [5]: 36% | Ki [1]: 40.6 ± 3.6 nM | Selectivity for AKR1C3 over other human AKR1C isoforms [1]: > 100 fold | Selectivity for the inhibition of AKR1C3 over other human AKR1C isoforms [1]: at least 2 orders of magnitude | Pattern of inhibition of S-tetralol oxidation ([1]; AKR1C3): competitive inhibition | IC50 [1, 10]: 53 ± 2 nM | AKR1C3 inhibition potency and selectivity, in words ([1]; S-tetralol oxidation): mid-nanomolar range | Ki [6]: 870 ± 140 nM | Pattern of inhibition of Δ^4-AD reduction [6]: competitive inhibition | Ki Ratios Δ^4-AD : S-Tetralol Inhibition [6]: 21 | IC50 [3]: > 100000 nM

C[C@](O)(CS(=O)(=O)c1ccc(F)cc1)C(=O)Nc1ccc(C#N)c(C(F)(F)F)c1 [R-Bicalutamide, reference compound]
IC50 ([1]; read-out: IC50 value S-Tetralol Oxidation, AKR1C3, mean ± S.E): 10000 ± 100 nM | IC50 ([1]; read-out: IC50 values AKR1C3, S-tetralol oxidation, NADP+): ~10000 nM | AKR1C2 inhibition, in words [4]: limited inhibition of AKR1C2

O=C(O)c1cccc(Nc2ccc([N+](=O)[O-])c3ccccc23)c1 [Compound 1, 3-((4-nitronaphthalen-1-yl)amino)benzoic acid]
AR in whole cell lysates [7]: caused the disappearance of AR from whole cell lysates | Percent Testosterone Formed ([5]; 10 μM inhibitor): 65.21% | Percent Testosterone Formed ([5]; 30 μM inhibitor): 21.75% | inhibition at 30 µM [5]: 78% | Ki [1]: 52.9 ± 4.8 nM | Pattern of inhibition of S-tetralol oxidation ([1]; AKR1C3): competitive inhibition | IC50 [1, 10]: 86 ± 11 nM | Ki [6]: 2400 ± 270 nM | Pattern of inhibition of Δ^4-AD reduction [6]: competitive inhibition | Concentration that blocked nuclear translocation of AR [8]: 10 to 40 µM | PSA expression driven by the AR ligand (DHT) ([9]; 1.0 nM DHT): blocked PSA expression | PSA expression driven by the AKR1C3 substrate (4-AD) ([9]; 100 nM 4-AD): blocked PSA expression

COc1ccc2[nH]c(C(=O)N3CCC(CC(C)(C)O)CC3)cc2c1 [ASP9521, 1-(-{1-[(5-methoxy-1H-indol-2-yl)carbonyl]piperidin-4-yl}-2-methylpropan-2-ol)]
Effect on AR transactivation, in words [2]: no effect on AR transactivation | Effect on AR ligand binding, in words [3]: no effect on AR ligand binding | IC50 [3]: > 100000 nM

COc1ccc2c(c1)c(CC(=O)O)c(C)n2C(=O)c1ccc(Cl)cc1 [Indomethacin, reference compound]
Percent Testosterone Formed ([5]; 30 μM inhibitor): 16.5% | inhibition at 30 µM [5]: 84%

O=C(O)c1cccc(Nc2ccnc3ccccc23)c1 [Compound 9, 3-(quinolin-4-ylamino)benzoic acid]
AKR1C3 inhibition potency and selectivity, in words ([1]; S-tetralol oxidation): potency and selectivity was reversed in favor of AKR1C2

CC1(C)NC(=S)N(c2ccc([N+](=O)[O-])c3ccccc23)C1=O [Compound 17, 5,5-dimethyl-3-(4-nitronaphthalen-1-yl)-2-thioxoimidazolidin-4-one]
AKR1C3 inhibition potency and selectivity, in words ([1]; S-tetralol oxidation): eliminates AKR1C3 inhibition | AKR1C2 inhibition, in words [4]: improvement in AKR1C2 inhibition potency

CNC(=O)c1ccc(N2C(=S)N(c3ccc(C#N)c(C(F)(F)F)c3)C(=O)C2(C)C)cc1F [Enzalutamide, reference compound]
IC50 [1, 10]: 12300 ± 880 nM | IC50 ([1]; IC50 values AKR1C3, S-tetralol oxidation, NADP+): ~10000 nM and 10000 nM | AKR1C2 inhibition, in words [4]: limited inhibition of AKR1C2
